Test results taken from ChEMBL document CHEMBL1157348, “The alkaloid conessine and analogues as potent histamine H3 receptor antagonists” (J Med Chem, 2008).

Key:
Histamine H2 receptor = Histamine H2 receptor (Homo sapiens, UniProt P25021); assay: Displacement of [3H]tiotidine from human histamine H2 receptor; conditions: read-out: Ki
Histamine H4 receptor = Histamine H4 receptor (Homo sapiens, UniProt Q9H3N8); assay: Displacement of [3H]histamine from human histamine H4 receptor expressed in HEK cells; type: cell-based, HEK293; conditions: read-out: Ki
[1] = target: T1, Muscarinic acetylcholine receptor M1 (Homo sapiens, UniProt P11229); assay: Binding affinity at muscarinic M1 receptor
T1 sequence (P11229 whole entry): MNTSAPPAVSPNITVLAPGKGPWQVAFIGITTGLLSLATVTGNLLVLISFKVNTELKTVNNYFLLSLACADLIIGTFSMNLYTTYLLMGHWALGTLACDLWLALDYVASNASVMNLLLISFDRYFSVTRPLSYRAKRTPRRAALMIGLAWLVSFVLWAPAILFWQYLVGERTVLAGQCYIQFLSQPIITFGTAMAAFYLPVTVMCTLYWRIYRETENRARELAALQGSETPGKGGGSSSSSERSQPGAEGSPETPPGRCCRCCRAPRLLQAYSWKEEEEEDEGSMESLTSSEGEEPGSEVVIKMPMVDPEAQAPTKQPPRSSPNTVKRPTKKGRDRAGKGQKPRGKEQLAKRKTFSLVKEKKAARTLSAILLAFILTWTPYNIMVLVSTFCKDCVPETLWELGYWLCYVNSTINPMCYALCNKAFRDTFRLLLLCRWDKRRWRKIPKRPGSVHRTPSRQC

Rattus norvegicus = assay: Toxicity in rat assessed as CNS side effects at 1.3 to 13 mg/kg, ip; type: organism-based; design: dose 1.3-13 mg/kg, route intraperitoneal; conditions: in vivo
Androgen receptor = target: T2, Androgen receptor (Homo sapiens, UniProt P10275); assay: Binding affinity at androgen receptor
T2 sequence (P10275 whole entry): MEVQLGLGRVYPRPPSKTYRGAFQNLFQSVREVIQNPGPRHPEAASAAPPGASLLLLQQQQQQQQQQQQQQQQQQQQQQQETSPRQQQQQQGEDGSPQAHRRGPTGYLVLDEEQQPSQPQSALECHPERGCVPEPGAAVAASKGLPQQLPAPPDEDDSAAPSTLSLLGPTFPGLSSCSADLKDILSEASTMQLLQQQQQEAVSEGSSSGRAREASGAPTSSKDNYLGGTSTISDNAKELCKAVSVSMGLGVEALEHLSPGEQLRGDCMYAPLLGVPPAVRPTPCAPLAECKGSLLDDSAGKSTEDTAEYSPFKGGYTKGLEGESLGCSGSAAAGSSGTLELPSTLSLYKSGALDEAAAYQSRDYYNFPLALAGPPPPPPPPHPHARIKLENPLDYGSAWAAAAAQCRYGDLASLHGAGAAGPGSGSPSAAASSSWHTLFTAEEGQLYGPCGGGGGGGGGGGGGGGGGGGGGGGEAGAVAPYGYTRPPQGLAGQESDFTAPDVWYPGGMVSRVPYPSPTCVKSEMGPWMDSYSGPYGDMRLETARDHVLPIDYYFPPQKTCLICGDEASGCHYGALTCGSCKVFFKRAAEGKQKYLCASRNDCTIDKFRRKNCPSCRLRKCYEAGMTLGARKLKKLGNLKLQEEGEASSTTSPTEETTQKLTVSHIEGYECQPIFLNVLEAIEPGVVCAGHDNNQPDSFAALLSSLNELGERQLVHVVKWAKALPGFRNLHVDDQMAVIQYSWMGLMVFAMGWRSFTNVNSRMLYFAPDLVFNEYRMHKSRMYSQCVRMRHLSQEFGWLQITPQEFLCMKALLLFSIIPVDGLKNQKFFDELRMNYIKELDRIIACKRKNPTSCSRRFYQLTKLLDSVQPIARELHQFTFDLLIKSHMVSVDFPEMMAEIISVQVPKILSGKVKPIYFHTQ

Progesterone receptor = target: T3, Progesterone receptor (Homo sapiens, UniProt P06401); assay: Binding affinity at progesterone receptor
T3 sequence (P06401 whole entry): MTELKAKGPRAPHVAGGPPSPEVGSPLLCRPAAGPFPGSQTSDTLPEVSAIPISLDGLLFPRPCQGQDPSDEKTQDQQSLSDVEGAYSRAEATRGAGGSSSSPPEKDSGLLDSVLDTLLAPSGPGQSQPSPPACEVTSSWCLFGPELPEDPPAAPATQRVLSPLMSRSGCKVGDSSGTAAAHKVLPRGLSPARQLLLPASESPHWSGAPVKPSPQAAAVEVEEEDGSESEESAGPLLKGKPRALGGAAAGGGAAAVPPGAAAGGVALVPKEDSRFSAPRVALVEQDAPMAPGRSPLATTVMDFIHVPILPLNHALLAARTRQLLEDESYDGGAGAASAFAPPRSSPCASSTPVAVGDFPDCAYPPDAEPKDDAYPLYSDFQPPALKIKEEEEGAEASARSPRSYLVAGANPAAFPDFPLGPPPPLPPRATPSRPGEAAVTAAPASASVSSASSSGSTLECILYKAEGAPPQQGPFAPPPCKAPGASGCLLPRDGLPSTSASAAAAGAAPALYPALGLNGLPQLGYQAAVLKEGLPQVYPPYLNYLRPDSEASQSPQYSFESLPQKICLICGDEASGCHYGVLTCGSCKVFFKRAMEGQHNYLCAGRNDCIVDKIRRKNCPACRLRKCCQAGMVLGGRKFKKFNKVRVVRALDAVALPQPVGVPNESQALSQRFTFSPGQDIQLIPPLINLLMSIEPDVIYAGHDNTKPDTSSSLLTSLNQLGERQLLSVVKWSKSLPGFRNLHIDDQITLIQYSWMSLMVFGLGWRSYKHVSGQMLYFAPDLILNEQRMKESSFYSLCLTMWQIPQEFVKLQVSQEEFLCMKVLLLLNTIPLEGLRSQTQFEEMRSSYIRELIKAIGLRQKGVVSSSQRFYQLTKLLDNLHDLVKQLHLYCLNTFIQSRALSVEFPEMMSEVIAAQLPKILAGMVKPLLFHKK

Phospholipidosis = assay: In vitro phospholipidosis index at 6.25 uM compared to amiodarone at 10 uM; type: ADME, cell-based, Hepatocyte; conditions: hepatocytes
Histamine H3 receptor = Histamine H3 receptor (Homo sapiens, UniProt Q9Y5N1); assay: Antagonist activity at H3 receptor assessed as inhibition of forskolin-induced cAMP release by SPA; type: functional
Histamine H3 receptor, sequence (Q9Y5N1 whole entry): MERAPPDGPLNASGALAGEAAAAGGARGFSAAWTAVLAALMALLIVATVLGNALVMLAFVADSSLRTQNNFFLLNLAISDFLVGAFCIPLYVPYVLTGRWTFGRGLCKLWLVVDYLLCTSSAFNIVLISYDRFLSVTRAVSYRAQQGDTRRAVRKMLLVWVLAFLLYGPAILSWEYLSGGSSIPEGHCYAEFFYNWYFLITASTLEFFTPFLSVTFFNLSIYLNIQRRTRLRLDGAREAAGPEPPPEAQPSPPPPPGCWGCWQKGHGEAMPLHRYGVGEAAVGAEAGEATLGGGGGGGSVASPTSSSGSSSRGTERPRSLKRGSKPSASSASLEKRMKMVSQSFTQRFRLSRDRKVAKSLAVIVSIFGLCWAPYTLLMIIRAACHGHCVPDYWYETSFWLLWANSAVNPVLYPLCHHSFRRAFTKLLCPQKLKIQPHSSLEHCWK

Histamine H4 receptor, sequence (Q9H3N8 whole entry): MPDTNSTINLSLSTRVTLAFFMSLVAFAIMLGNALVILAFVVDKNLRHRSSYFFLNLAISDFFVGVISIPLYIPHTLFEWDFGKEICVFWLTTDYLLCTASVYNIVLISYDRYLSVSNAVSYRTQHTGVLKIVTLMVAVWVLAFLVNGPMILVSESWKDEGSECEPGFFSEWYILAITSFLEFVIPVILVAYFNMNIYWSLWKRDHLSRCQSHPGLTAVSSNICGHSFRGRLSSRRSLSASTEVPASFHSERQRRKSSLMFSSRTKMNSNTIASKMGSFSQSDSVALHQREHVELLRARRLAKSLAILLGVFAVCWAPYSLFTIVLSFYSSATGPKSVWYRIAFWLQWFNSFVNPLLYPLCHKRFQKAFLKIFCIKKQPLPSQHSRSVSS
Histamine H2 receptor, sequence (P25021 whole entry): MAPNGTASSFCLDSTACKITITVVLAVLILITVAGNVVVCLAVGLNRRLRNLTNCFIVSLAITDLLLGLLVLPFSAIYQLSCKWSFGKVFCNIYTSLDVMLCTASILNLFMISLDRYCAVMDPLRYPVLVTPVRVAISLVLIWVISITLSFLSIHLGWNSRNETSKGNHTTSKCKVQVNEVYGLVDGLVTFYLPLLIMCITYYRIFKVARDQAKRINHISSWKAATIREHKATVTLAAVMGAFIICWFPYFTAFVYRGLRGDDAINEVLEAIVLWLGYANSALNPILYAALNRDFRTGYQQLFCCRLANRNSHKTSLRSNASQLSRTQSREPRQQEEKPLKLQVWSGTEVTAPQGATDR

Molecule `CN[C@@H](C(=O)N(C)[C@H]1CC[C@@]2(C)C(=CC[C@H]3[C@@H]4CC[C@@H]5[C@H](C)N(C)C[C@@]54CC[C@@H]32)C1)C(C)C` has a Ki (Histamine H2 receptor) greater than 10 µM, a Ki (Histamine H4 receptor) greater than 10 µM and a Ki [1] of 0.011 µM. The Activity (Rattus norvegicus) was “Non-toxic”, the Ki (Androgen receptor) was greater than 30 µM and the Ki (Progesterone receptor) was greater than 30 µM. It also gave a Phospholipidosis_index (Phospholipidosis) of 0.42 and a Kb (Histamine H3 receptor) of 0.004 µM.
